Entries after “also recorded” stand apart in the source; their conditions may differ.
Columns and labels:
C3(1)-TAg tumors = experiment: Transgenic TNBC mouse model C3(1)-TAg treated with metformin; assay type: in vivo; settings: metformin 200 mg/kg/day, absence of hemin; very low BACH1 expression
Description: For a transgenic TNBC mouse model, C3(1)-TAg, mice (n=5/group) were treated with metformin (200 mg/kg/day), after 10 days of mice developed palpable tumors (about 25 mm^3), at age of 15 weeks. Tumor volume was assayed by caliper measurement twice per week.

MB436 xenograft tumors = settings: hemin 50 mg/kg/day i.p. 10 consecutive days prior to metformin 200 mg/kg
Description: (§2) Two million human breast cancer cells (MDA-MB-436-shCont, MDA-MB-436-shBACH1, BM1-shBACH1, or BM1-shCont) in 100 μl PBS were injected into the mammary fat pads of 5 to 6 weeks old athymic nude female mice (Charles River Laboratories). When tumors were about 20-30 or 50 mm^3 in volume, hemin (50 mg/kg/day) or vehicle (20 mM NaOH in phosphate buffered saline) was injected intraperitoneally for 10 days prior to metformin treatment for 8 weeks. Metformin (200 mg/kg for MDA-MB-436 cells or 300 mg/kg for BM1-cells) was provided in drinking water ad libidum. Tumor growth was monitored weekly by caliper measurement in two dimensions to generate ellipsoid volumes using an equation of vol.=0.4×(L×W^2).

[1] = in vivo; cited from earlier work
[2] = test system: TNBC cells (BM1, MB436, MB468, BT549); assay type: cell-based, human
Description: TNBC cell lines stably knocked down with lenti-viral shRNA for BACH1 were constructed and maintained as described previously. Gene expression analysis of cultured cells and isolated tumor tissues used a Reverse transcriptase kit followed by Roche96 cycler for real time mRNA quantification and Lycor imaging for immunoblotting. For in vitro cell viability assay with mitochondrial inhibitors, TNBC cells (2×10^3-5×10^3/well) seeded on 96 well plates overnight with culture media (DMEM with 25 mM Glucose) were treated with inhibitors in fresh culture media (DMEM with 1.25 mM Glucose) for 48 and 72 hours and stained with calcein AM and/or monitored for cellular confluency using an IncuCyte Zoom Live Cell Analysis system. Extracellular flux analyzer was used to assay metabolic phenotypes of BACH1-depleted TNBC cells and TNBC cells that are treated with hemin overnight before assays. For bioinformatics analysis using primary patient data cohort (TCGA), cBioportal and R were used.
(§1) Breast cancer cells (5,000 cells/well) and non-malignant mammary epithelial cells (8,000 cells/well) were plated on 96-well plates to observe growth of cells every 4 hours by phase contrast imaging using an IncuCyte Zoom Live Cell Analysis system (Essen Bioscience). After 24 hours of plating, inhibitors were added and monitored until control cells reached 100% confluent. To determine cell viability, cells were seeded in black walled 96-well plates overnight and treated with inhibitors for 48 hours. Calcein AM (R&D system) in PBS was then added and incubated for 1 hour at 37° C. Fluorescence was determined using a Victor3 plate reader (PerkinElmer) with excitation at 420 nm and emission at 520 nm. The absorbance was used to reflect live cell numbers and was normalized to those in control with vehicles and shown as relative viability (%).

[3] = test system: non-malignant mammary epithelial cells (184A1 and MCF10A); experiment: Cell viability (calcein AM) of non-malignant mammary epithelial cells; assay type: cell-based, human; settings: 48 hours
Description: as §1

[4] = metformin 200-300 mg/kg; cited from earlier work
[5] = test system: MB436-shBACH1 and BM1-shBACH1 (and shCont) xenograft TNBC tumors; experiment: BACH1-depleted xenograft TNBC tumors treated with metformin; assay type: in vivo, mouse
Description: as §2

[6] = test system: NAD+/NADH in shBACH1 TNBC cells; experiment: NAD/NADH-Glo measurement; assay type: cell-based, human; settings: pyruvate 2.5 mM added to growth media
Description: NAD(H) was measured using the NAD/NADH-Glo Assay kit (Promega) in accordance with the manufacturer's protocol. Lactate produced by cells were measured using the media that 5×10^5 cells were plated on 6 well plates in 2 ml media containing 1.25 mM glucose for 3 days or overnight. Harvested media was used for L-Lactate Assay Kit I (Eton Bioscience). For glucose consumption measurement, media from the cells cultured in 12 well plates were freshly replenished with media containing 5 mM glucose and collected after 21 hours for glucose measurement using Glucose Assay Kit I (Eton Bioscience).

[7] = Cell viability (calcein AM) of non-malignant mammary epithelial cells; assay type: cell-based, human; settings: human, non-malignant mammary epithelial cells (184A1 and MCF10A), read-out: reduction of cell viability of non-malignant mammary epithelial cells
Description: as §1

## CN(C)C(=N)N=C(N)N [metformin]
C3(1)-TAg tumors
  sensitivity of C3(1)-TAg mice tumors: highly sensitive to metformin
MB436 xenograft tumors
  breast tumor growth / volume: neither hemin nor metformin alone significantly altered tumor growth
[1]
  levels in metformin-treated human diabetic patients: ~10 µM
[2]
  metformin response on overexpression of wt BACH1 in MB436-shBACH1 cells: generated a metformin-resistance phenotype
[2]; BM1-shBACH1 and MB436-shBACH1 cells
  resistance to metformin on expression of Mut-Bach1 following heme treatment: restored resistance to metformin
[2]; MB436 or BM1 cells
  sensitivity to metformin on BACH knockdown: increased sensitivity to metformin treatment
[2]; pyruvate 2.5 mM, shBACH1 TNBC cells
  inhibitory effect of metformin after addition of pyruvate to growth media: completely rescued the inhibitory effect of metformin
[2]; siRNA for COX15 or UQCRC1 in BM1-shBACH1 cells
  metformin resistance and cell growth after silencing COX15 or UQCRC1: completely restored metformin resistance
[3]
  viability of non-malignant mammary epithelial cells: did not alter the viability
[4]
  mouse tumor and plasma concentrations: 3 to 12 µM
[5]; metformin 300 mg/kg/day
  growth of BM1 xenograft tumors expressing shBACH1: Comparable results
[5]; metformin 200-300 mg/kg in drinking water, within a week of administration, MB436-shBACH1
  growth of TNBC tumors stably expressing shBACH1: drastically suppressed; also recorded: reduction of MB436-shBACH1 tumor volume
[5]; metformin alone, 200-300 mg/kg in drinking water, control (shCont) xenografts
  control tumor growth: no effect on control tumor growth
[5]; shBACH1 MB436 xenograft mice following metformin treatment
  tumor-free mice: a significant fraction of shBACH xenograft mice were tumor-free; also recorded: a significant fraction of shBACH1 MB436 xenograft mice were tumor-free

## CC(=O)C(=O)O [pyruvate]
[6]
  NAD+ levels: increased

## C=C(C)[C@H]1Cc2c(ccc3c2O[C@@H]2COc4cc(OC)c(OC)cc4[C@@H]2C3=O)O1 [rotenone]
[7]
  cytotoxicity at 48 h: 25 to 50%

Reference: US10888569B1, “Methods and compositions for treating cancer” (THE UNIVERSITY OF CHICAGO, priority 2017, dated 2021)
